Test results from patent US10945992B1, “Dosage forms of rofecoxib and related methods” (Tremeau Pharmaceuticals, Inc., priority 2019, dated 2021).
Read-outs that look alike come from different tables or passages of the source.

Experiment: TRM-201-PK-102 single-dose four-period crossover pharmacokinetic study, fasted healthy subjects
Format: in vivo, human
Conditions: human, plasma, oral
Experimental: A Single-Dose, Open-Label, Phase 1, Four-Period Crossover Pharmacokinetic Study of TRM-201 (Rofecoxib) 12.5 mg, 17.5 mg, 20 mg and 25 mg Administered to Healthy Subjects in a Fasting State, with Comparison to Historical Pharmacokinetic Parameters of Previously Marketed Rofecoxib (“TRM-201-PK-102” or “102 PK Study”)
This was a single-center, open-label four-period crossover PK study of TRM-201. The study included 24 subjects who received TRM-201 as a single dose of 12.5 mg, 17.5 mg, 20 mg and 25 mg to assess the PK of TRM-201 in healthy volunteers under fasted conditions. Subjects were randomized to one of four treatment sequences. The PK data from the current study along with the data from the TRM-201-PK-101 study (Example 4) was used to compare to historical pharmacokinetic parameters of previously marketed rofecoxib, all in a fasted state.
In each of the four dosing periods, subjects fasted overnight for at least 10 hours before study drug dosing. While fasting, subjects had nothing to eat and only water to drink. Water was permitted as desired, except for the period between 1 hour before and 1 hour after study drug dosing (excepting as permitted for dosing). After the 2-hour PK blood sample, subjects were allowed one 250-mL cup of clear apple juice. After the 4-hour PK blood sample, subjects were served a light lunch. Following the light lunch, subjects received standardized meals according to the clinic's standard procedures that were scheduled at consistent times and at least 15 minutes before or 15 minutes after PK sampling time points. Blood was withdrawn for PK analysis at predefined time points. For each dosing period the last time point was 120 hours after dosing with study drug (Day 6). After the 120 hour PK sample, the EOP procedures was completed, subjects remained in-clinic for the in-between dose period day (Days 7, 14, and 21) and began the next dosing period starting with an overnight fast for at least 10 hours on Day −1 of the subsequent dosing period. Pharmacokinetic and safety endpoints were evaluated.
The study drug, TRM-201, was an immediate-release tablet that contained 12.5 mg rofecoxib, 17.5 mg rofecoxib, 20 mg rofecoxib or 25 mg rofecoxib. The 7.25-mm diameter tablets were off-white, round, and uncoated with no markings. TRM-201 tablets were for oral administration.
For each sample, approximately 3 mL of blood were drawn. The samples were obtained by a straight stick or via an in-dwelling intravenous (IV) catheter in a forearm vein. Additional details for the collection, processing, storage, and shipping of PK samples were provided in the study manual.
Pharmacokinetic samples will be analyzed using a validated assay for rofecoxib in human plasma. Assay results and validation details will be provided in a separate bioanalytical report. The following PK parameters for rofecoxib will be calculated as primary endpoints using standard noncompartmental methods: AUC0-∞ and Cmax. Secondary endpoints include Tmax, and t1/2. Additional PK parameters (e.g., CL/F, and Vd/F) will also be calculated using standard noncompartmental methods.
Individual plasma concentrations for rofecoxib and PK sampling time deviation data will be presented in a data listing. Plasma concentration data will be summarized by time point using the following descriptive statistics: number of subjects, arithmetic mean, SD, coefficient of variation (CV), geometric mean, natural-log-scale SD, geometric CV, median, minimum, and maximum. Individual plasma concentration versus actual time profiles were presented on both linear and semilogarithmic scales. Additionally, arithmetic mean concentration versus scheduled time profiles were presented on linear scales and geometric means on semilogarithmic scales.
The PK parameters of rofecoxib were analyzed based on the actual sampling times. […]

[1] = 20 mg, read-out: arithmetic mean plasma concentration
[2] = 20 mg, read-out: geometric mean plasma concentration

With CS(=O)(=O)c1ccc(C2=C(c3ccccc3)C(=O)OC2)cc1 [TRM-201, 4-[4-(methylsulfonyl)phenyl]-3-phenyl-2(5H)-furanone] the AUC(0-inf) (20 mg, 102 study only, read-out: arithmetic mean AUC0-∞) was 3750 ng·h/mL, the Cmax (20 mg, 102 study only, read-out: arithmetic mean Cmax) was 277 ng/mL and the AUC(0-inf) (20 mg, 102 study only, read-out: geometric mean AUC0-∞) was 3550 ng·h/mL. It also gave a Cmax (20 mg, 102 study only, read-out: geometric mean Cmax) of 259 ng/mL, an AUC(0-inf) (20 mg, 102 study, 18-40 years, read-out: arithmetic mean AUC0-∞) of 3580 ng·h/mL and a Cmax (20 mg, 102 study, 18-40 years, read-out: arithmetic mean Cmax) of 308 ng/mL. For the same molecule, the AUC(0-inf) (20 mg, 102 study, 18-40 years, read-out: geometric mean AUC0-∞) was 3420 ng·h/mL, the Cmax (20 mg, 102 study, 18-40 years, read-out: geometric mean Cmax) was 289 ng/mL and the AUC(0-inf) (20 mg, 102 study, 41-52 years, read-out: arithmetic mean AUC0-∞) was 3730 ng·h/mL. It also gave a Cmax (20 mg, 102 study, 41-52 years, read-out: arithmetic mean Cmax) of 262 ng/mL, an AUC(0-inf) (20 mg, 102 study, 41-52 years, read-out: geometric mean AUC0-∞) of 3360 ng·h/mL and a Cmax (20 mg, 102 study, 41-52 years, read-out: geometric mean Cmax) of 242 ng/mL. It also gave an AUC(0-inf) (20 mg, 102 study, 53-60 years, read-out: arithmetic mean AUC0-∞) of 3940 ng·h/mL, a Cmax (20 mg, 102 study, 53-60 years, read-out: arithmetic mean Cmax) of 260 ng/mL and an AUC(0-inf) (20 mg, 102 study, 53-60 years, read-out: geometric mean AUC0-∞) of 3880 ng·h/mL. For the same molecule, the Cmax (20 mg, 102 study, 53-60 years, read-out: geometric mean Cmax) was 249 ng/mL, the AUC(0-inf) (20 mg, 102 study, Black or African-American subjects, read-out: arithmetic mean AUC0-∞) was 3380 ng·h/mL and the Cmax (20 mg, 102 study, Black or African-American subjects, read-out: arithmetic mean Cmax) was 298 ng/mL. It also gave an AUC(0-inf) (20 mg, 102 study, Black or African-American subjects, read-out: geometric mean AUC0-∞) of 3300 ng·h/mL, a Cmax (20 mg, 102 study, Black or African-American subjects, read-out: geometric mean Cmax) of 295 ng/mL and an AUC(0-inf) (20 mg, 102 study, Hispanic or Latino subjects, read-out: arithmetic mean AUC0-∞) of 3840 ng·h/mL. The Cmax (20 mg, 102 study, Hispanic or Latino subjects, read-out: arithmetic mean Cmax) was 281 ng/mL, the AUC(0-inf) (20 mg, 102 study, Hispanic or Latino subjects, read-out: geometric mean AUC0-∞) was 3630 ng·h/mL and the Cmax (20 mg, 102 study, Hispanic or Latino subjects, read-out: geometric mean Cmax) was 258 ng/mL. For the same molecule, the AUC(0-inf) (20 mg, 102 study, White subjects, read-out: arithmetic mean AUC0-∞) was 3850 ng·h/mL, the Cmax (20 mg, 102 study, White subjects, read-out: arithmetic mean Cmax) was 271 ng/mL and the AUC(0-inf) (20 mg, 102 study, White subjects, read-out: geometric mean AUC0-∞) was 3610 ng·h/mL. It also gave a Cmax (20 mg, 102 study, White subjects, read-out: geometric mean Cmax) of 250 ng/mL, an AUC(0-inf) (20 mg, 102 study, body weight 47-70 kg, read-out: arithmetic mean AUC0-∞) of 3650 ng·h/mL and a Cmax (20 mg, 102 study, body weight 47-70 kg, read-out: arithmetic mean Cmax) of 336 ng/mL. The AUC(0-inf) (20 mg, 102 study, body weight 47-70 kg, read-out: geometric mean AUC0-∞) was 3340 ng·h/mL, the Cmax (20 mg, 102 study, body weight 47-70 kg, read-out: geometric mean Cmax) was 307 ng/mL and the AUC(0-inf) (20 mg, 102 study, body weight 70.1-77 kg, read-out: arithmetic mean AUC0-∞) was 4500 ng·h/mL. The Cmax (20 mg, 102 study, body weight 70.1-77 kg, read-out: arithmetic mean Cmax) was 259 ng/mL, the AUC(0-inf) (20 mg, 102 study, body weight 70.1-77 kg, read-out: geometric mean AUC0-∞) was 4400 ng·h/mL and the Cmax (20 mg, 102 study, body weight 70.1-77 kg, read-out: geometric mean Cmax) was 248 ng/mL. The AUC(0-inf) (20 mg, 102 study, body weight 77.1-90 kg, read-out: arithmetic mean AUC0-∞) was 3250 ng·h/mL, the Cmax (20 mg, 102 study, body weight 77.1-90 kg, read-out: arithmetic mean Cmax) was 238 ng/mL and the AUC(0-inf) (20 mg, 102 study, body weight 77.1-90 kg, read-out: geometric mean AUC0-∞) was 3170 ng·h/mL. For the same molecule, the Cmax (20 mg, 102 study, body weight 77.1-90 kg, read-out: geometric mean Cmax) was 231 ng/mL, the AUC(0-inf) (20 mg, 102 study, non-Hispanic or non-Latino subjects, read-out: arithmetic mean AUC0-∞) was 3660 ng·h/mL and the Cmax (20 mg, 102 study, non-Hispanic or non-Latino subjects, read-out: arithmetic mean Cmax) was 272 ng/mL. The AUC(0-inf) (20 mg, 102 study, non-Hispanic or non-Latino subjects, read-out: geometric mean AUC0-∞) was 3470 ng·h/mL, the Cmax (20 mg, 102 study, non-Hispanic or non-Latino subjects, read-out: geometric mean Cmax) was 260 ng/mL and the concentration at 15 minutes [1] was 5.75 ng/mL. The concentration at 15 minutes [2] was 1.16 ng/mL, the concentration at 45 minutes [1] was 121 ng/mL and the concentration at 45 minutes [2] was 72.6 ng/mL. For the same molecule, the AUC(0-inf) (25 mg, 102 study only, read-out: arithmetic mean AUC0-∞) was 4630 ng·h/mL, the Cmax (25 mg, 102 study only, read-out: arithmetic mean Cmax) was 349 ng/mL and the AUC(0-inf) (25 mg, 102 study only, read-out: geometric mean AUC0-∞) was 4490 ng·h/mL. It also gave a Cmax (25 mg, 102 study only, read-out: geometric mean Cmax) of 341 ng/mL, an AUC(0-inf) (25 mg, 102 study, 18-40 years, read-out: arithmetic mean AUC0-∞) of 4140 ng·h/mL and a Cmax (25 mg, 102 study, 18-40 years, read-out: arithmetic mean Cmax) of 366 ng/mL. It also gave an AUC(0-inf) (25 mg, 102 study, 18-40 years, read-out: geometric mean AUC0-∞) of 4050 ng·h/mL, a Cmax (25 mg, 102 study, 18-40 years, read-out: geometric mean Cmax) of 356 ng/mL and an AUC(0-inf) (25 mg, 102 study, 41-52 years, read-out: arithmetic mean AUC0-∞) of 4810 ng·h/mL.
